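Each compound was tested at five concentrations against cells in 96-well plates for 48 hours. GI50: concentration for 50% inhibition of growth.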 Calls of active or inactive are those of the source. Cut-off read from the data, not from the text of the source: active = GI50 up to about 1.1 µM and inactive = higher.
Columns and labels:
Assay in all cases: NCI-60 cell line screen, 48 h
SNB-19 = system: SNB-19
MDA-MB-231 = system: MDA-MB-231
UACC-257 = system: UACC-257
A549 = system: A549
COLO 205 = system: COLO 205
K562 = system: K562
NCI-H23 = system: NCI-H23
SK-MEL-5 = system: SK-MEL-5
UO-31 = system: UO-31
U-251 = system: U-251
MDA-MB-435 = system: MDA-MB-435
HCT-15 = system: HCT-15
NCI-H460 = system: NCI-H460
OVCAR-4 = system: OVCAR-4
OVCAR-5 = system: OVCAR-5
HCC 2998 = system: HCC 2998
SF-539 = system: SF-539
HCT-116 = system: HCT-116
EKVX = system: EKVX
LOX IMVI = system: LOX IMVI

Row | SMILES | GI50 (SNB-19) | GI50 (MDA-MB-231) | GI50 (UACC-257) | GI50 (A549) | GI50 (COLO 205) | GI50 (K562) | GI50 (NCI-H23) | GI50 (SK-MEL-5) | GI50 (UO-31) | GI50 (U-251) | GI50 (MDA-MB-435) | GI50 (HCT-15) | GI50 (NCI-H460) | GI50 (OVCAR-4) | GI50 (OVCAR-5) | GI50 (HCC 2998) | GI50 (SF-539) | GI50 (HCT-116) | GI50 (EKVX) | GI50 (LOX IMVI)
1 | COc1cc(C(=O)c2cocc2C(=O)c2ccc3c(c2)OCO3)cc(OC)c1OC | 0.933 µM (active) | 2.65 µM (inactive) | 0.531 µM (active) | 5.26 µM (inactive) | 4.91 µM (inactive) | 0.151 µM (active) | 0.826 µM (active) | 0.232 µM (active) | 1.58 µM (inactive) | 0.537 µM (active) | 0.0916 µM (active) | 0.347 µM | 0.658 µM (active) | 18.5 µM (inactive) | 18.6 µM (inactive) | 3.72 µM (inactive) | 0.399 µM (active) | 0.333 µM (active) | 6.64 µM (inactive) | 0.483 µM (active)
2 | Sc1ncc2[nH]nnc2n1 | > 100 µM (inactive) | > 100 µM (inactive) | > 100 µM (inactive) | > 100 µM (inactive) | > 100 µM (inactive) | > 100 µM (inactive) | > 100 µM (inactive) | > 100 µM (inactive) | > 100 µM (inactive) | > 100 µM (inactive) | > 100 µM (inactive) | > 100 µM | > 100 µM (inactive) | > 100 µM (inactive) | > 100 µM (inactive) | > 100 µM (inactive) | > 100 µM (inactive) | > 100 µM (inactive) | > 100 µM (inactive) | > 100 µM (inactive)
3 | CC1(C)C/C(=N/O)c2c(nc3ccc4ccccc4c3c2-c2ccc(Cl)cc2)C1 | 35 µM (inactive) | 11.6 µM (inactive) | 25.4 µM (inactive) | 19.4 µM (inactive) | 18.2 µM (inactive) | 19 µM (inactive) | 22 µM (inactive) | 37.2 µM (inactive) | 16.8 µM (inactive) | 11.5 µM (inactive) | 60.1 µM (inactive) | 16.4 µM | 6.14 µM (inactive) | 13.8 µM (inactive) | 40.7 µM (inactive) | 21.6 µM (inactive) | 16.6 µM (inactive) | 11 µM (inactive) | 15.7 µM (inactive) | 13.7 µM (inactive)
4 | CC1OC(O[C@@H]2OC=C(C=O)[C@@]3(O)CC[C@H](C)[C@@H]23)C(O)C(O)C1O (stereo partly specified) | > 100 µM (inactive) | > 100 µM (inactive) | > 100 µM (inactive) | > 100 µM (inactive) | > 100 µM (inactive) | > 100 µM (inactive) | > 100 µM (inactive) | > 100 µM (inactive) | > 100 µM (inactive) | > 100 µM (inactive) | > 100 µM (inactive) | > 100 µM | > 100 µM (inactive) | > 100 µM (inactive) | > 100 µM (inactive) | > 100 µM (inactive) | > 100 µM (inactive) | > 100 µM (inactive) | > 100 µM (inactive) | > 100 µM (inactive)
5 | O/N=C(\CC(O)(C(F)(F)F)C(F)(F)F)c1cccs1 | > 10 µM (inactive) | > 10 µM (inactive) | > 10 µM (inactive) | > 10 µM (inactive) | > 10 µM (inactive) | > 10 µM (inactive) | > 10 µM (inactive) | > 10 µM (inactive) | > 10 µM (inactive) | > 10 µM (inactive) | > 10 µM (inactive) | > 10 µM | > 10 µM (inactive) | > 10 µM (inactive) | > 10 µM (inactive) | > 10 µM (inactive) | > 10 µM (inactive) | > 10 µM (inactive) | > 10 µM (inactive) | > 10 µM (inactive)
6 | CC(=O)OCC1OC(n2ncc(=O)[nH]c2=O)C(OC(C)=O)C1OC(C)=O (stereo unspecified) |  | > 10 µM (inactive) |  | 8.97 µM (inactive) | 11.3 µM (inactive) | 0.832 µM (active) | 68.5 µM (inactive) | 19.3 µM (inactive) |  | 1.09 µM (active) | 32.4 µM (inactive) | 3.41 µM | 1.17 µM (inactive) | > 100 µM (inactive) | > 100 µM (inactive) | 26.1 µM (inactive) | 30.3 µM (inactive) | 1.07 µM (active) |  | 6.3 µM (inactive)
7 | COC(=O)C1=C(C(=O)OC)C(OO)(c2ccccc2)OC1=O (stereo unspecified) | > 100 µM (inactive) | 58.2 µM (inactive) | > 100 µM (inactive) | > 100 µM (inactive) | > 100 µM (inactive) | 52.7 µM (inactive) | > 100 µM (inactive) | 50.2 µM (inactive) | > 100 µM (inactive) | 37.4 µM (inactive) | > 100 µM (inactive) | 40.6 µM | 48.6 µM (inactive) | > 100 µM (inactive) | 40.6 µM (inactive) | > 100 µM (inactive) | 33.3 µM (inactive) | 61.7 µM (inactive) | > 100 µM (inactive) | 31.3 µM (inactive)
